Laboratory results reported in BindingDB's records for patent US12208088 (Genentech, 2025).

Target: Mitogen-activated protein kinase kinase kinase kinase 1 (Homo sapiens, UniProt Q92918)
Experiment: HPK1 Lantha Binding Assay
Description: For the binding assay, 4 ul 2×HPK1 and Eu-anti-GST antibody were added to each well of the assay plate using a Multidrop reagent dispenser. The solutions were incubated in a 23 C incubator for 1 h. To each well of the assay plate was added 4 ul 2× Tracer-222 using a Multidrop reagent dispenser. The solutions were again incubated in a 23 C incubator for 1 h. The results of the assay were read using an Envision plate reader with the following parameters: TR_FRET, 340 ex/615 and 665em; 100 usec Delay; and 200 usec integration.

Mitogen-activated protein kinase kinase kinase kinase 1, sequence (Q92918 whole entry): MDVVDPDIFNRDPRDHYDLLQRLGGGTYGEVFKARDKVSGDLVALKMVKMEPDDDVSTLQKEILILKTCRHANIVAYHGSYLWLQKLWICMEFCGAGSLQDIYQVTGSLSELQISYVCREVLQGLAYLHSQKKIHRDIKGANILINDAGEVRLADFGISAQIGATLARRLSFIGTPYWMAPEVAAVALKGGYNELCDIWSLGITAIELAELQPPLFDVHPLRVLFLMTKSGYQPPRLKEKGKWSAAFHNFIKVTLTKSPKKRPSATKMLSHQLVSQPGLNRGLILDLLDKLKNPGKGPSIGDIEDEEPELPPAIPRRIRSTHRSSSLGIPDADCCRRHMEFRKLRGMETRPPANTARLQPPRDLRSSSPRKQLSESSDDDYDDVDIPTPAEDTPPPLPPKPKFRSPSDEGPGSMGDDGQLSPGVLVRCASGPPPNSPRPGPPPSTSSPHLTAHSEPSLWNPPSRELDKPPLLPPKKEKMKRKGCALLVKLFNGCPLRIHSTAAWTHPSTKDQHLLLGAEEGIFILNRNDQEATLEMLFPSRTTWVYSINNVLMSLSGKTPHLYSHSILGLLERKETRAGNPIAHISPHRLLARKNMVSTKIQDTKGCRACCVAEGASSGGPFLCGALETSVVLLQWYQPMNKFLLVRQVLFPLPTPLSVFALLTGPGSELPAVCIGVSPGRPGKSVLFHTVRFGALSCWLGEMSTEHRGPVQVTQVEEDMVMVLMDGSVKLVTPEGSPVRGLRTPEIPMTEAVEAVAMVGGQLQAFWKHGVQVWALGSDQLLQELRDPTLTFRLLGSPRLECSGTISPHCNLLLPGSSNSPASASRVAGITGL

Row | Ki | Structure (SMILES)
1 | 22.8 nM | CN(CC(C)(C)O)C(=O)c1c(N)ccc(-c2cnc3c(c2Cl)C2(CC2)CN3)c1F [US12208088, Compound 35]
2 | 771 nM | CC(=O)Nc1cc(C(=O)N(C)C)cc(-c2cnc3c(c2Cl)C2(CC2)CN3)c1 [US12208088, Compound 33]
3 | 163 nM | CN(C)C(=O)c1ccc(-c2cnc3c(c2Cl)C2(CC=CC2)CN3)cc1Cl [US12208088, Compound 192]
4 | 43.9 nM | CC1CNC(=O)N1c1c(N)ccc(-c2cnc3c(c2Cl)C2(CC2)CN3)c1F (configuration not stated) [US12208088, Compound 25]
5 | 11.5 nM | N#CC1CCCCN1C(=O)c1cccc(-c2cnc3c(c2Cl)C2(CC=CC2)CN3)c1F (configuration not stated) [US12208088, Compound 264]
6 | 23.4 nM | CN(C)C(=O)c1c(N)ccc(-c2cnc3c(c2Cl)C2(CCC(Cn4cncn4)C2)CN3)c1F (configuration not stated) [US12208088, Compound 129]
7 | 28.4 nM | O=C1NCCC1c1cccc(-c2cnc3c(c2)C2(CC2)CN3)c1F (configuration not stated) [US12208088, Compound 92]
